Read-outs that look alike come from different tables or passages of the source.
Target: T1, STAT6 (Homo sapiens, UniProt P42226)
T1 construct: endogenous in cells; host or cells: MOLM-16, KU-812, SKNO1, MB231, L1236
T1 sequence (P42226 1-847): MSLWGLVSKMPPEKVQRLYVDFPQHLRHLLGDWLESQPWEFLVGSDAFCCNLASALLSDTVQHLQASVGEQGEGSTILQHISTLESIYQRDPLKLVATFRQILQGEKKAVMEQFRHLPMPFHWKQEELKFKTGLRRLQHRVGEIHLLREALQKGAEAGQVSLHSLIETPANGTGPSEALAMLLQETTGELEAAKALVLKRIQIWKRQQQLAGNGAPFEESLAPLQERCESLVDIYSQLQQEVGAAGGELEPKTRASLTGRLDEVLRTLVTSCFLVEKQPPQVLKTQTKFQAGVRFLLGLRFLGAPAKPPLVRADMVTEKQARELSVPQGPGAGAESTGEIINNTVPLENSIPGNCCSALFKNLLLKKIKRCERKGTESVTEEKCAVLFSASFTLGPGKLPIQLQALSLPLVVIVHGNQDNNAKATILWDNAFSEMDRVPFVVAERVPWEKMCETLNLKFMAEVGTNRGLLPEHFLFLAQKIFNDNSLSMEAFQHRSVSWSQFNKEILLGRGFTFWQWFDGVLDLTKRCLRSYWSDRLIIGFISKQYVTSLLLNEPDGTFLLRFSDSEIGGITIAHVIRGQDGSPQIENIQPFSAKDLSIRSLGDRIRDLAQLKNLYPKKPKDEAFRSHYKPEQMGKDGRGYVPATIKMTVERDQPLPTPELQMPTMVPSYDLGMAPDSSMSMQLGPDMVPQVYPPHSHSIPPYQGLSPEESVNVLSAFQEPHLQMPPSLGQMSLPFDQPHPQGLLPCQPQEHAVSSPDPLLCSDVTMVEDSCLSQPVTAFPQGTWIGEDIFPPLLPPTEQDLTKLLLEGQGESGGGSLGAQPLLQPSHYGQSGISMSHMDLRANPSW
Assay: Immunoblotting (Western blot) analysis of STAT6 degradation efficiency of degraders in treated cells
Assay type: cell-based
How it was run: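 Read-out: fluorescent IRDye 680RD/800CW secondaries imaged on an infrared scanner, with band intensities quantified by densitometry and GAPDH serving as loading control. Samples were RIPA lysates, BCA-normalised, from ~1 million treated cells.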

[1] = L1236 cells, read-out: DC50 S6 L1236
[2] = MOLM-16 cells, class symbols, read-out: DC50 S6 MOLM-16

SMILES | DC50 [1] | DC50 [2]
Cc1ncsc1-c1ccc([C@H](C)NC(=O)[C@@H]2C[C@@H](O)CN2C(=O)[C@@H](NC(=O)CCNC(=O)CO[C@H]2C[C@@H](C(=O)N3CCC[C@H](c4ccccc4)C3)N(C(=O)[C@@H](NC(=O)c3cc4cc(C(F)(F)P(=O)(O)O)ccc4s3)C(C)(C)C)C2)C(C)(C)C)cc1 [Compound 435, (difluoro(2-(((S)-1-((2S,4S)-4-(2-((3-(((S)-1-((2S,4R)-4-hydroxy-2-(((S)-1-(4-(4-methylthiazol-5-yl)phenyl)ethyl)carbamoyl)pyrrolidin-1-yl)-3,3-dimethyl-1-oxobutan-2-yl)amino)-3-oxopropyl)amino)-2-oxoethoxy)-2-((R)-3-phenylpiperidine-1-carbonyl)pyrrolidin-1-yl)-3,3-dimethyl-1-oxobutan-2-yl)carbamoyl)benzo[b]thiophen-5-yl)methyl)phosphonic acid] | > 10 µM | > 10 µM
Cc1ncsc1-c1ccc([C@H](C)NC(=O)[C@@H]2C[C@@H](O)CN2C(=O)[C@@H](NC(=O)CCCCCNC(=O)COc2ccc3c(c2)CN(C(=O)[C@@H](NC(=O)c2cc4cc(C(F)(F)P(=O)(O)O)ccc4s2)C(C)(C)C)[C@H](C(=O)N2CCO[C@H](c4ccccc4)C2)C3)C(C)(C)C)cc1 [Compound 465, (difluoro(2-(((S)-1-((S)-7-(2-((6-(((S)-1-((2S,4R)-4-hydroxy-2-(((S)-1-(4-(4-methylthiazol-5-yl)phenyl)ethyl)carbamoyl)pyrrolidin-1-yl)-3,3-dimethyl-1-oxobutan-2-yl)amino)-6-oxohexyl)amino)-2-oxoethoxy)-3-((R)-2-phenylmorpholine-4-carbonyl)-3,4-dihydroisoquinolin-2(1H)-yl)-3,3-dimethyl-1-oxobutan-2-yl)carbamoyl)benzo[b]thiophen-5-yl)methyl)phosphonic acid] | > 10 µM | > 10 µM
CC(C)(C)[C@H](NC(=O)c1cc2cc(C(F)(F)P(=O)(O)O)ccc2s1)C(=O)N1CCN(C(=O)CC(=O)NCCC#Cc2ccc3c(c2)C(=O)N(C2CCC(=O)NC2=O)C3=O)C[C@H]1C(=O)N1CCC[C@H](c2ccccc2)C1 (stereo partly drawn) [Compound 524, ((2-(((2S)-1-((2S)-4-(3-((4-(2-(2,6-dioxopiperidin-3-yl)-1,3-dioxoisoindolin-5-yl)but-3-yn-1-yl)amino)-3-oxopropanoyl)-2-((R)-3-phenylpiperidine-1-carbonyl)piperazin-1-yl)-3,3-dimethyl-1-oxobutan-2-yl)carbamoyl)benzo[b]thiophen-5-yl)difluoromethyl)phosphonic acid] |  | > 10 µM
CC(C)(C)[C@H](NC(=O)c1cc2cc(C(F)(F)P(=O)(O)O)ccc2s1)C(=O)N1Cc2cc(OCC(=O)NCCCCC#Cc3cccc4c3C(=O)N(C3CCC(=O)NC3=O)C4=O)ccc2C[C@H]1C(=O)N1CCC[C@H](c2ccccc2)C1 (stereo partly drawn) [Compound 555, ((2-(((2S)-1-((3S)-7-(2-((6-(2-(2,6-dioxopiperidin-3-yl)-1,3-dioxoisoindolin-4-yl)hex-5-yn-1-yl)amino)-2-oxoethoxy)-3-((R)-3-phenylpiperidine-1-carbonyl)-3,4-dihydroisoquinolin-2(1H)-yl)-3,3-dimethyl-1-oxobutan-2-yl)carbamoyl)benzo[b]thiophen-5-yl)difluoromethyl)phosphonic acid] |  | > 10 µM
CC(C)(C)[C@H](NC(=O)c1cc2cc(C(F)(F)P(=O)(O)O)ccc2s1)C(=O)N1CCN(C(=O)CC(=O)NCC#Cc2ccc3c(c2)C(=O)N(C2CCC(=O)NC2=O)C3=O)C[C@H]1C(=O)N1CCO[C@H](c2ccccc2)C1 (stereo partly drawn) [Compound 508, ((2-(((2S)-1-((2S)-4-(3-((3-(2-(2,6-dioxopiperidin-3-yl)-1,3-dioxoisoindolin-5-yl)prop-2-yn-1-yl)amino)-3-oxopropanoyl)-2-((R)-2-phenylmorpholine-4-carbonyl)piperazin-1-yl)-3,3-dimethyl-1-oxobutan-2-yl)carbamoyl)benzo[b]thiophen-5-yl)difluoromethyl)phosphonic acid] |  | > 10 µM
Cc1ncsc1-c1ccc([C@H](C)NC(=O)[C@@H]2C[C@@H](O)CN2C(=O)[C@@H](NC(=O)CCCCNC(=O)CO[C@H]2C[C@@H](C(=O)N3CCC[C@H](c4ccccc4)C3)N(C(=O)[C@@H](NC(=O)c3cc4cc(C(F)(F)P(=O)(O)O)ccc4s3)C(C)(C)C)C2)C(C)(C)C)cc1 [Compound 437, (difluoro(2-(((S)-1-((2S,4S)-4-(2-((5-(((S)-1-((2S,4R)-4-hydroxy-2-(((S)-1-(4-(4-methylthiazol-5-yl)phenyl)ethyl)carbamoyl)pyrrolidin-1-yl)-3,3-dimethyl-1-oxobutan-2-yl)amino)-5-oxopentyl)amino)-2-oxoethoxy)-2-((R)-3-phenylpiperidine-1-carbonyl)pyrrolidin-1-yl)-3,3-dimethyl-1-oxobutan-2-yl)carbamoyl)benzo[b]thiophen-5-yl)methyl)phosphonic acid] | > 10 µM | > 10 µM
CC(C)(C)[C@H](NC(=O)c1cc2cc(C(F)(F)P(=O)(O)O)ccc2s1)C(=O)N1CCN(C(=O)CC(=O)NCCCCC#Cc2ccc3c(c2)C(=O)N(C2CCC(=O)NC2=O)C3=O)C[C@H]1C(=O)N1CCO[C@H](c2ccccc2)C1 (stereo partly drawn) [Compound 514, ((2-(((2S)-1-((2S)-4-(3-((6-(2-(2,6-dioxopiperidin-3-yl)-1,3-dioxoisoindolin-5-yl)hex-5-yn-1-yl)amino)-3-oxopropanoyl)-2-((R)-2-phenylmorpholine-4-carbonyl)piperazin-1-yl)-3,3-dimethyl-1-oxobutan-2-yl)carbamoyl)benzo[b]thiophen-5-yl)difluoromethyl)phosphonic acid] |  | > 10 µM
CC(C)(C)[C@H](NC(=O)c1cc2cc(C(F)(F)P(=O)(O)O)ccc2s1)C(=O)N1CCN(C(=O)CC(=O)NCCCCCCCCC#Cc2cccc3c2C(=O)N(C2CCC(=O)NC2=O)C3=O)C[C@H]1C(=O)N1CCC[C@H](c2ccccc2)C1 (stereo partly drawn) [Compound 531, ((2-(((2S)-1-((2S)-4-(3-((10-(2-(2,6-dioxopiperidin-3-yl)-1,3-dioxoisoindolin-4-yl)dec-9-yn-1-yl)amino)-3-oxopropanoyl)-2-((R)-3-phenylpiperidine-1-carbonyl)piperazin-1-yl)-3,3-dimethyl-1-oxobutan-2-yl)carbamoyl)benzo[b]thiophen-5-yl)difluoromethyl)phosphonic acid] |  | > 10 µM
CC(C)(C)[C@H](NC(=O)c1cc2cc(C(F)(F)P(=O)(O)O)ccc2s1)C(=O)N1Cc2cc(OCC(=O)NCCCCCCCCCC#Cc3cccc4c3C(=O)N(C3CCC(=O)NC3=O)C4=O)ccc2C[C@H]1C(=O)N1CCO[C@H](c2ccccc2)C1 (stereo partly drawn) [Compound 547, ((2-(((2S)-1-((3S)-7-(2-((11-(2-(2,6-dioxopiperidin-3-yl)-1,3-dioxoisoindolin-4-yl)undec-10-yn-1-yl)amino)-2-oxoethoxy)-3-((R)-2-phenylmorpholine-4-carbonyl)-3,4-dihydroisoquinolin-2(1H)-yl)-3,3-dimethyl-1-oxobutan-2-yl)carbamoyl)benzo[b]thiophen-5-yl)difluoromethyl)phosphonic acid] |  | > 10 µM
CC(C)(C)[C@H](NC(=O)c1cc2cc(C(F)(F)P(=O)(O)O)ccc2s1)C(=O)N1Cc2cc(OCC(=O)NCCCCCCCCCC#Cc3ccc4c(c3)C(=O)N(C3CCC(=O)NC3=O)C4=O)ccc2C[C@H]1C(=O)N1CCO[C@H](c2ccccc2)C1 (stereo partly drawn) [Compound 548, ((2-(((2S)-1-((3S)-7-(2-((11-(2-(2,6-dioxopiperidin-3-yl)-1,3-dioxoisoindolin-5-yl)undec-10-yn-1-yl)amino)-2-oxoethoxy)-3-((R)-2-phenylmorpholine-4-carbonyl)-3,4-dihydroisoquinolin-2(1H)-yl)-3,3-dimethyl-1-oxobutan-2-yl)carbamoyl)benzo[b]thiophen-5-yl)difluoromethyl)phosphonic acid] |  | > 10 µM
CC(C)(C)[C@H](NC(=O)c1cc2cc(C(F)(F)P(=O)(O)O)ccc2s1)C(=O)N1C[C@@H](OCC(=O)NCCCCC#Cc2cccc3c2C(=O)N(C2CCC(=O)NC2=O)C3=O)C[C@H]1C(=O)N1CCC[C@H](c2ccccc2)C1 (stereo partly drawn) [Compound 499, ((2-(((2S)-1-((2S,4S)-4-(2-((6-(2-(2,6-dioxopiperidin-3-yl)-1,3-dioxoisoindolin-4-yl)hex-5-yn-1-yl)amino)-2-oxoethoxy)-2-((R)-3-phenylpiperidine-1-carbonyl)pyrrolidin-1-yl)-3,3-dimethyl-1-oxobutan-2-yl)carbamoyl)benzo[b]thiophen-5-yl)difluoromethyl)phosphonic acid] |  | > 10 µM

Reference: patent US20230295197A1, “STAT5 and STAT6 Degraders and Uses Thereof” (REGENTS OF THE UNIVERSITY OF MICHICAN, priority 2022, published 2023)
